Biological target: T1, human lung fibroblast collagenase (Homo sapiens, UniProt P03956)
T1 construct: purified from culture supernatants from the human lung fibroblast cell line, WI-38; endogenous in cells; host or cells: WI-38 (human lung fibroblast cell line), culture supernatant, purified
T1 sequence (P03956 100-469): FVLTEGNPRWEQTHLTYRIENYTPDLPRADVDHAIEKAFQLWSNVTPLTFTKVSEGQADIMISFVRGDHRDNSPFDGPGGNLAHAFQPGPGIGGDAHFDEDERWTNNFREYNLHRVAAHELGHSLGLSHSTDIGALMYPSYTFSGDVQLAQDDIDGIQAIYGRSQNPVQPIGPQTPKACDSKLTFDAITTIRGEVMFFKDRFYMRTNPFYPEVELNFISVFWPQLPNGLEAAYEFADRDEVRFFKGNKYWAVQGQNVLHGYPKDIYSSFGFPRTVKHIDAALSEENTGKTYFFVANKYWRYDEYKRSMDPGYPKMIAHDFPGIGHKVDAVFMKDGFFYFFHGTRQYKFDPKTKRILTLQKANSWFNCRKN
Assay: Collagenase inhibitor assay (degradation of 3H-acetylated rat skin type I collagen)
Assay type: biochemical
Conditions: collagenase purified from WI-38 culture supernatants; 3H-acetylated rat skin type I collagen substrate; 5 min pre-incubation, 37° C. overnight; β-mercaptoethanol may be incorporated; read-out: IC50 (50% inhibitory concentration), inhibition of human lung fibroblast collagenase
Experimental: The test is performed essentially as in Cawston and Barrett, Anal. Biochem. 99, 340-345 (1979). Compounds for testing are dissolved in methanol by sonication and added to collagenase (purified from culture supernatants from the human lung fibroblast cell line, WI-38) in buffer. To ensure that thiol collagenase inhibitors remain unoxidised, β-mercaptoethanol may be incorporated in the methanol solvent and/or the diluent buffers to give a final concentration of 9.6×10-^5 M. The minimal direct effect of β-mercaptoethanol on the degradation of collagen by human collagenase is controlled for. After a 5 min pre-incubation at 37° C., the assay tubes are cooled to 4° C. and ^3 H-acetylated rat skin type I collagen is added. The assay tubes are incubated at 37° C. overnight. The ^3 H-collagen forms insoluble fibrils, which are the substrate for the enzyme.
To terminate the assay, the assay tubes are spun at 12000 rpm for 15 min. Undigested ^3 H-collagen is pelleted, while digested ^3 H-collagen is found as soluble peptides in the supernatant. A sample of the supernatant is taken for liquid scintillation counting.
The activity of collagenase inhibitors (IC50 :50% inhibitory concentration) is expressed as that concentration of compound that inhibits a known (standard) concentration of enzyme by 50%.

| Compound | IC50 [µM] |
| --- | --- |
| COC(=O)CC(S)C(CC(C)C)C(=O)NC1CCCCCCCCCCNC1=O (single isomer, unassigned) [Example E2A, 3-mercapto-6-methyl-4-[(2-oxoazacyclotridec-3-yl)aminocarbonyl]heptanoic acid, methyl ester] | 0.0027 |
| CC(C)CC(C(=O)NC1CCCCCCCCCCNC1=O)C(S)CC(=O)OC(C)C (stereo not drawn) [Example E4A] | 0.015 |
| CC(C)CC(C(=O)NC1CCCCCCCCCCNC1=O)C(S)CC(=O)O (single isomer, unassigned) [Example E3A, 3-Mercapto-6-methyl-4-[(2-oxoazacyclotridec-3-yl)aminocarbonyl]heptanoic acid] | 0.0745 |

From patent publication US5190937A, “Lactam derivatives” (Beecham Group p.l.c., priority 1990, dated 1993)
